Activity calls are given as the source filed them. The calls are words filed in the database; no cut-off is given here.
How the values were obtained:
PANC-1 = assay: Antiproliferative activity against human PANC1 cells harboring KRAS G12D mutant assessed as inhibition of cell viability after 24 hrs by MTT assay; type: functional, cell-based; details: PANC-1, 24 h
CT26 [1] = assay: In vivo inhibition of KRAS G12D mutant (unknown origin) mediated downstream signalling in mouse CT26 cells allografted in BALB/c mouse assessed as decrease in phosphorylation level of Raf in tumor tissue at 40 to 60 mg/kg, ip administered once a day for 10 days by Western blotting analysis; type: functional, organism-based; details: dose 40-60 mg/kg, time 10.0 day
[2] = tested on: GTPase KRas (Homo sapiens), P01116 [G12D]; assay: Inhibition of KRAS G12D mutant (unknown origin) downstream signalling in human SW1990 cells assessed as suppression of Raf phosphorylation incubated for 24 hrs by pull down based Western blotting analysis; type: cell-based; details: dose <= 16.0 µM, DDE = dose-dependent effect
GTPase KRas (Homo sapiens), P01116 [G12D], sequence (P01116 whole entry G12D, looked up): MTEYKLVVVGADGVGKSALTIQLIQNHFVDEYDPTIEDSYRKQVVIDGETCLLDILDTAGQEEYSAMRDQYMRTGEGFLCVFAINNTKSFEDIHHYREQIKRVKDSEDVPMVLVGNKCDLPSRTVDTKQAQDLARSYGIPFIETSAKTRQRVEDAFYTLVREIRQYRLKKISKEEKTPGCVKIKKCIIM

[3] = molecular target: GTPase KRas (Homo sapiens) (UniProt P01116); assay: Inhibition of wild type KRAS (unknown origin) downstream signalling in human HCT-116 cells assessed as suppression of Raf phosphorylation incubated 24 hrs by pull down based Western blotting analysis; type: cell-based; details: dose <= 8.0 µM, DDE = dose-dependent effect
GTPase KRas (Homo sapiens), sequence (P01116 whole entry, looked up): as the sequence (P01116 whole entry G12D, looked up) above, with D12G counted along it

SW1990 [4] = assay: Antiproliferative activity against human SW1990 cells harboring KRAS G12D mutant assessed as inhibition of cell viability after 24 hrs by MTT assay; type: functional, cell-based; details: SW1990, 24 h
HeLa = assay: Antiproliferative activity against human HeLa cells harboring wild type KRAS assessed as inhibition of cell viability after 24 hrs by MTT assay; type: functional, cell-based
CT26 [5] = assay: Antiproliferative activity against mouse CT26 cells harboring KRAS G12D mutant assessed as inhibition of cell viability after 24 hrs by MTT assay; type: functional, cell-based; details: CT26, 24 h
SW1990 [6] = assay: Induction of apoptosis in human SW1990 cells assessed as early apoptotic cells at 2 uM measured after 24 hrs by PI/Annexin V staining based flow cytometric analysis (reference value: 10.7%); type: functional
SW1990 [7] = assay: Induction of apoptosis in human SW1990 cells assessed as late apoptotic cells at 2 uM measured after 24 hrs by PI/Annexin V staining based flow cytometric analysis (reference value: 3.75%); type: functional
SW1990 [8] = assay: Induction of apoptosis in human SW1990 cells assessed as necrotic cells at 2 uM measured after 24 hrs by PI/Annexin V staining based flow cytometric analysis (reference value: 2.69%); type: functional
SW1990 [9] = assay: Induction of apoptosis in human SW1990 cells assessed as late apoptotic cells at 4 uM measured after 24 hrs by PI/Annexin V staining based flow cytometric analysis (reference value: 3.75%); type: functional
SW1990 [10] = assay: Induction of apoptosis in human SW1990 cells assessed as necrotic cells at 4 uM measured after 24 hrs by PI/Annexin V staining based flow cytometric analysis (reference value: 2.69%); type: functional
SW1990 [11] = assay: Induction of apoptosis in human SW1990 cells assessed as early apoptotic cells at 8 uM measured after 24 hrs by PI/Annexin V staining based flow cytometric analysis (reference value: 10.7%); type: functional
CT26 [12] = assay: Induction of apoptosis in mouse CT26 cells assessed as early apoptotic cells at 2 uM measured after 24 hrs by PI/Annexin V staining based flow cytometric analysis (reference value: 11.2%); type: functional
CT26 [13] = assay: Induction of apoptosis in mouse CT26 cells assessed as necrotic cells at 2 uM measured after 24 hrs by PI/Annexin V staining based flow cytometric analysis (reference value: 0.789%); type: functional
CT26 [14] = assay: Induction of apoptosis in mouse CT26 cells assessed as viable cells at 4 uM measured after 24 hrs by PI/Annexin V staining based flow cytometric analysis (reference value: 84.8%); type: functional; details: read-out: Activity
CT26 [15] = assay: Induction of apoptosis in mouse CT26 cells assessed as early apoptotic cells at 8 uM measured after 24 hrs by PI/Annexin V staining based flow cytometric analysis (reference value: 11.2%); type: functional
CT26 [16] = assay: Induction of apoptosis in mouse CT26 cells assessed as late apoptotic cells at 8 uM measured after 24 hrs by PI/Annexin V staining based flow cytometric analysis (reference value: 3.21%); type: functional
[17] = tested on: GTPase KRas (Homo sapiens), P01116 [G12D]; assay: Binding affinity to human his-tagged KRAS G12D mutant assessed as change in enthalpy by isothermal titration calorimetry
[18] = tested on: GTPase KRas (Homo sapiens), P01116 [G12D]; assay: Binding affinity to human his-tagged KRAS G12D mutant assessed as gibbs free energy change by isothermal titration calorimetry
CT26 [19] = assay: Inhibition of GTP bound KRAS in mouse CT26 cells assessed as down regulation of KRAS-GTP protein level incubated for 12 hrs by Pull-Down based Western blotting analysis; type: functional, cell-based; details: dose 10-20 µM, DDE = dose-dependent effect
CT26 [20] = assay: Inhibition of KRAS G12D mutant (unknown origin) downstream signalling in mouse CT26 cells assessed as suppression of ERK phosphorylation incubated for 24 hrs by pull down based Western blotting analysis; type: cell-based; details: dose <= 16.0 µM, DDE = dose-dependent effect
[21] = molecular target: GTPase KRas (Homo sapiens) (UniProt P01116); assay: Inhibition of wild type KRAS (unknown origin) downstream signalling in human HCT-116 cells assessed as suppression of ERK phosphorylation incubated for 24 hrs by pull down based Western blotting analysis; type: cell-based; details: dose <= 8.0 µM, DDE = dose-dependent effect
CT26 [22] = assay: In vivo inhibition of KRAS G12D mutant (unknown origin) mediated downstream signalling in mouse CT26 cells allografted in BALB/c mouse assessed as decrease in phosphorylation level of ErK in tumor tissue at 40 to 60 mg/kg, ip administered once a day for 10 days by Western blotting analysis; type: functional, organism-based; details: dose 40-60 mg/kg, time 10.0 day
[23] = Toxicity in BALB/c mouse allografted with mouse CT26 cells assessed as effect on liver morphology at 40 to 60 mg/kg, ip administered once a day for 10 days by H and E staining based microscopic analysis; type: organism-based; details: in vivo, 240 h, dose 40-60 mg/kg, time 10 day
[24] = Toxicity in BALB/c mouse allografted with mouse CT26 cells assessed as effect on kidney morphology at 40 to 60 mg/kg, ip administered once a day for 10 days by H and E staining based microscopic analysis; type: organism-based; details: in vivo, 240 h, dose 40-60 mg/kg, time 10 day
[25] = Toxicity in BALB/c mouse allografted with mouse CT26 cells assessed as WBC level at 40 to 60 mg/kg, ip administered once a day for 10 days (reference value: 3.090 to 6.730 10^9/L); type: organism-based; details: in vivo, 240 h, dose 40-60 mg/kg, time 10 day
[26] = Toxicity in BALB/c mouse allografted with mouse CT26 cells assessed as basophil level at 40 to 60 mg/kg, ip administered once a day for 10 days (reference value: 0.050 to 40.3 10^9/L); type: organism-based; details: in vivo, 240 h, dose 40-60 mg/kg, time 10 day
[27] = Toxicity in BALB/c mouse allografted with mouse CT26 cells assessed as lymphocyte level at 40 to 60 mg/kg, ip administered once a day for 10 days (reference value: 5.6 to 35.2 %); type: organism-based; details: in vivo, 240 h, dose 40-60 mg/kg, time 10 day
[28] = Toxicity in BALB/c mouse allografted with mouse CT26 cells assessed as eosinophil level at 40 to 60 mg/kg, ip administered once a day for 10 days (reference value: 16 to 17.3 %); type: organism-based; details: in vivo, 240 h, dose 40-60 mg/kg, time 10 day
[29] = Toxicity in BALB/c mouse allografted with mouse CT26 cells assessed as PCT level at 40 to 60 mg/kg, ip administered once a day for 10 days (reference value: 0.226 to 6.4 %); type: organism-based; details: in vivo, 240 h, dose 40-60 mg/kg, time 10 day

For `COc1ccc(C(F)(F)F)cc1-c1cc2c(N3CC4CCC(C3)N4)ncnc2s1`, which IC50 (PANC-1) is on record?
The IC50 was 2300 nM.

What about the Activity (CT26 [1]) of the same compound?
The Activity was “Active”.

What about the Activity [2] of the same compound?
The Activity was “Dde”.

And the Activity [3]?
Its Activity is “Dde”.

What about the IC50 (SW1990 [4]) of the same compound?
Its IC50 is 2100 nM.

What about the IC50 (HeLa) of the same compound?
Its IC50 is 7400 nM.

And the IC50 (CT26 [5])?
Its IC50 is 2000 nM.

What about the Activity (SW1990 [6]) of the same compound?
The Activity was 3.87%.

What about the Activity (SW1990 [7]) of the same compound?
The Activity was 18.6%.

And the Activity (SW1990 [8])?
The Activity was 3.11%.

What about the Activity (SW1990 [9]) of the same compound?
The Activity was 29.2%.

And the Activity (SW1990 [10])?
Its Activity is 8.76%.

What about the Activity (SW1990 [11]) of the same compound?
The Activity was 37.1%.

And the Activity (CT26 [12])?
Its Activity is 15.4%.

And the Activity (CT26 [13])?
The Activity was 1.39%.

And the viability at 4 µM (CT26 [14])?
Its viability at 4 µM is 38.8%.

What about the Activity (CT26 [15]) of the same compound?
Its Activity is 24.4%.

What about the Activity (CT26 [16]) of the same compound?
The Activity was 60.4%.

And the deltaH [17]?
The deltaH was -26.6 kcal/mol.

What about the deltaG [18] of the same compound?
Its deltaG is -10.2 kcal/mol.

And the inhibition (CT26 [19])?
Its inhibition is “Dde”.

What about the Activity (CT26 [20]) of the same compound?
The Activity was “Dde”.

And the Activity [21]?
Its Activity is “Dde”.

What about the Activity (CT26 [22]) of the same compound?
The Activity was “Active”.

What about the Activity [23] of the same compound?
Its Activity is “Non-Toxic”.

What about the Activity [24] of the same compound?
The Activity was “Non-Toxic”.

What about the Activity [25] of the same compound?
The Activity was 5.05 10^9/L.

And the Activity [26]?
Its Activity is 0.01 10^9/L.

And the Activity [27]?
Its Activity is 4.9%.

And the Activity [28]?
The Activity was 0.2%.

What about the Activity [29] of the same compound?
Its Activity is 0.372%.

— ChEMBL document CHEMBL5154793, “Discovery of Thieno[2,3-d]pyrimidine-based KRAS G12D inhibitors as potential anticancer agents via combinatorial virtual screening” (Eur J Med Chem, 2022)
